Common to all, as to format: cell-based
For experiment [1], the system named is methilcillin-resistant S. aureus (MRSA) ATCC BAA-1556. The experiment in a line: MIC determination (EUCAST, Mueller-Hinton broth). Conditions: Staphylococcus aureus. The protocol:
(§1) Further experiments were conducted using different strains of S. aureus, as clinically relevant Gram-positive bacterial strains: ATCC 25904, ATCC 6538, methilcillin-resistant S. aureus (MRSA) ATCC BAA-1556, Glycopeptide intermediate-resistant (GISA) S. aureus Mu-50 (ATCC 700695) in order to determine the Minimal Inhibitory Concentration (MIC) which is the minimal concentration required to prevent bacterial growth; the Minimal Bactericidal Concentration (MBC) which determines the lowest concentration at which an antimicrobial agent kill a particular microorganism and a Minimum Duration for killing 99.9% bacteria (MDK99.9) which is a tolerance metric according to the EUCAST.
(§2) MIC determination: A single colony selected from the different strains of S. aureus is resuspended and cultured in the appropriate medium overnight (O/N) in aerobic conditions (37° C. with 220 rpm shaking), next day a 1:100 inoculum in Mueller-Hinton broth (MHB) was incubated in aerobic conditions for 3 hr (OD=0.08-0.1) and an inoculum of 1:300 dilution, corresponding to 3×10^5 CFU/ml, was incubated in presence or absence of different concentrations of Triafluocyl in 1% DMSO. After O/N growth the OD of each culture was measured at 600 nm in a spectrophotometer (OD600). The MIC represents the concentration at which there is no visible growth of bacteria, i.e. ΔOD at 600 nm equal to zero (blank is the medium alone). MIC for Triafluocyl against S. aureus ATCC 25904, ATCC 6538, methilcillin-resistant S. aureus (MRSA) ATCC BAA-1556, Glycopeptide intermediate-resistant (GISA), and S. aureus Mu-50 (ATCC 700695) were 20, 20, 15, and 20 μg/ml, respectively.
(§3) The Minimal Inhibitory Concentration (MIC) and the Minimal Bactericidal Concentration (MBC) of Fluometacyl were determined on several gram-positive strains (Table 2) following EUCAST (European Committee on Antimicrobial susceptibility Testing) recommendations.
(§4) For MIC determination a single colony was resuspended and cultured in the appropriate bacteria-specific medium (TSB: Tryptic Soy Broth for S. aureus atcc 25904 and S. epidermidis and BHI: brain-heart infusion medium for all the other strains) overnight (O/N) in aerobic conditions (37° C. with 220 rpm shaking), next day a 1:100 inoculum was incubated in Mueller-Hinton broth (MHB) in aerobic conditions for 3 hr (OD600=0.08-0.1). A further inoculum, 1:300 dilution of the MHB culture, corresponding to 3×10^5 CFU/ml, was grown in presence or absence of different concentrations of Fluometacyl, 1% DMSO in MHB for 20 hr.

Experiment [2] concerns Glycopeptide intermediate-resistant (GISA) S. aureus Mu-50 (ATCC 700695). The experiment can be described thus: MIC determination (EUCAST, Mueller-Hinton broth). As to conditions: Staphylococcus aureus, ATCC700695. The protocol: as §1, §2, §3, §4
The test system of the next experiment is S. aureus ATCC 25904. The experiment can be described thus: MIC determination (EUCAST, Mueller-Hinton broth). Conditions: Staphylococcus aureus, ATCC25904. The protocol: as §1, §2, §3, §4
In experiment [3] the test system is Escherichia coli (ATCC 8739). The experiment can be described thus: MIC determination with or without C12(ω7)Kβ12 (OAK). As to conditions: for MIC: Escherichia coli, ATCC8739, in presence of 5 μg/ml OAK; for inhibition of Escherichia coli growth: taken alone at a concentration of 10 μg/ml.
From the text: Determination of Minimal Inhibitory Concentration (MIC) and Minimal Bactericidal Concentration (MBC) of Triafluocyl (purchased from Cayman Chemical, Item No. 15425) in presence of C12(ω7)Kβ12 (purchased from biomers.net, Germany) against Escherichia coli (ATCC 8739). The C12(ω7)Kβ12 was synthesized by solid-phase method as described by I. Radzishevsky in Antimicrobial Agents and Chemotherapy, May 2007 (1753-1759) (https://aac.asm.org/content/51/5/1753).
(§5) A single colony of Escherichia coli grown on a Luria-Bertani (LB) agar plate is resuspended and cultured in LB medium overnight (O/N) in aerobic conditions (37° C. with 220 rpm shaking in the New Brunswick Innova 4330 Shaker incubator). An aliquot of 100 μl such overnight Escherichia coli culture is diluted 1:50 in 5 ml Mueller-Hintom broth (MHB) and is incubated in aerobic conditions during 1 hour 30 minutes (OD=0.08-0.1) to reach the exponential phase of their growth curve. An inoculum of the exponentially growing Escherichia coli, corresponding to around 1×10^6 c.f.u./ml is then incubated in presence or absence of different concentrations of Triafluocyl in 2% DMSO with or without OAK for 24 hr in aerobic conditions (37° C. with 220 rpm shaking in the New Brunswick Innova 4330 Shaker incubator). Growth of Escherichia coli in each condition depicted in FIG. 13A is evaluated by reading the Optical Density of each culture at 600 nm (OD600) in a spectrophotometer (Victor-3, Perkin Elmer).
Determination of Minimal Inhibitory Concentration (MIC) and Minimal Bactericidal Concentration (MBC) of Fluometacyl (prepared according to WO 99/05143) in presence of C12(ω7)Kβ12 (purchased from biomers.net, Germany) against Escherichia coli (ATCC 8739). The C12(ω7)Kβ12 was synthesized by solid-phase method as described by I. Radzishevsky in Antimicrobial Agents and Chemotherapy, May 2007 (1753-1759) (https://aac.asm.org/content/51/5/1753).
as §5, with “An inoculum of the exponentially growing Escherichia coli, corresponding to around 1×10^6 c.f.u./ml is then incubated in presence or absence of different concentrations of Triafluocyl in 2% DMSO with or without OAK for 24 hr in aerobic conditions (37° C. with 220 rpm shaking in the New Brunswick Innova 4330 Shaker incubator).” left out, “14A” for “13A”

SMILES strings stand for the structures.

In the case of `CCCSc1nc(N[C@@H]2C[C@H]2c2ccc(F)c(F)c2)c2nnn([C@@H]3C[C@H](O)[C@@H](O)[C@H]3O)c2n1` [Fluometacyl, (1S,2R,3S,4R)-4-[7-[[(1R,2S)-2-(3,4-Difluorophenyl)cyclopropyl]amino]-5-(propylthio)-3H-1,2,3-triazolo[4,5-d]pyrimidin-3-yl]-1,2,3-cyclopentanetriol], the MIC – broadly, the smallest concentration in the dilution series that meets the test's criterion for growth inhibition – in experiment [1] is 20 to 30 µM; in experiment [2] (S. aureus MU50 GISA), 30 to 38 µM; against S. aureus ATCC 25904, 30 to 38 µM; in experiment [3], 5 µg/mL. Further, the “inhibition of Escherichia coli growth” value in experiment [3] is “unable to inhibit E. coli growth”.
Turning to `CCCSc1nc(N[C@@H]2C[C@H]2c2ccc(F)c(F)c2)c2nnn([C@@H]3C[C@H](OCCO)[C@@H](O)[C@H]3O)c2n1` [Triafluocyl, (1S,2S,3R,5S)-3-[7-[(1R,2S)-2-(3,4-difluorophenyl)cyclopropylamino]-5-(propylthio)-3H-[1,2,3]-triazolo[4,5-d]pyrimidin-3-yl]-5-(2-hydroxyethoxy)-1,2-cyclopentanediol], the MIC in experiment [1] turned out to be 15 µg/mL; in experiment [2] (S. aureus Mu50 GISA), 20 µg/mL; with S. aureus ATCC 25904, 20 µg/mL; in experiment [3] it was 5 µg/mL. Also, the “inhibition of Escherichia coli growth” value in experiment [3] is “unable to inhibit Escherichia coli growth”.

For the origin of these results see US10905691B2, “Use of triazolo(4,5-d)pyrimidine derivatives for prevention and treatment of bacterial infection” (Universite de Liege, priority 2016, dated 2021).
